Data set [1] deals with T1, soluble guanylate cyclase (sGC) (Homo sapiens, UniProt Q02108+Q02153).
T1 sequence (Q02108 1-690): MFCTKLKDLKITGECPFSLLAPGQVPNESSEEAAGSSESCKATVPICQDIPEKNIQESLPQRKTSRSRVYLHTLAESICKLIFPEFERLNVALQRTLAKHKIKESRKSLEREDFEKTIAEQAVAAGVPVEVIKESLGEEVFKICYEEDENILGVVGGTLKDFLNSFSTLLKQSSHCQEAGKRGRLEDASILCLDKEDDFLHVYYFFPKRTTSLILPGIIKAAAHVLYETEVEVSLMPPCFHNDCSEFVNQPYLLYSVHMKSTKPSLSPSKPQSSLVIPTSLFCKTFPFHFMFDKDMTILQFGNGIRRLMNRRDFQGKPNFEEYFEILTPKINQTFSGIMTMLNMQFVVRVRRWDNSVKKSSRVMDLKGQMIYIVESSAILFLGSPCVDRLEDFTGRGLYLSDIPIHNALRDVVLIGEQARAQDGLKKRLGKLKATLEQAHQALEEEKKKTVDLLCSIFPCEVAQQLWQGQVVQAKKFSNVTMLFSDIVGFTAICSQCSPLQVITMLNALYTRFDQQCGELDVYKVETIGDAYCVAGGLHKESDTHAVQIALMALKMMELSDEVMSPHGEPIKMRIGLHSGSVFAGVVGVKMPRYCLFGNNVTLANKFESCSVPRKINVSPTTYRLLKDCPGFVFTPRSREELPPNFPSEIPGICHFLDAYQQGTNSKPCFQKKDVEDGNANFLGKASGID
T1 sequence (Q02153 1-619): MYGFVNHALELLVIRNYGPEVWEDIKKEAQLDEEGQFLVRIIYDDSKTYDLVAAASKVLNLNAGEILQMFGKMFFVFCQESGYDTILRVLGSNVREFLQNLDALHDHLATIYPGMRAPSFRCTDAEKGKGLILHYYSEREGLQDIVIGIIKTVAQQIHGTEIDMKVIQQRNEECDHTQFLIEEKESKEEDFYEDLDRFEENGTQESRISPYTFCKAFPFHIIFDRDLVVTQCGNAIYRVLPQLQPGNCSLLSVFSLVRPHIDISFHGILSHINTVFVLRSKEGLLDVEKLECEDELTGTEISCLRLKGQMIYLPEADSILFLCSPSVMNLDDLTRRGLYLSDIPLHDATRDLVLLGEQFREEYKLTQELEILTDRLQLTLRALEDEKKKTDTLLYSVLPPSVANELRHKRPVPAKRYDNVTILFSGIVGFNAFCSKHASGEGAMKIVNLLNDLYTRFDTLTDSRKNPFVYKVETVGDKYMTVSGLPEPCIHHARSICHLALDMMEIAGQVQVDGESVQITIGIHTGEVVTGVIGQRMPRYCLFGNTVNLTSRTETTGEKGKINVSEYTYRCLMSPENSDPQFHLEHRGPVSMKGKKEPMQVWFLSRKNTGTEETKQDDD
Kind of data set: In vitro detection experiment for soluble guanylate cyclase (sGC) activity (TR-FRET). (In general: TR-FRET usually uses a lanthanide donor and a delayed reading to cut background.)
Method: First, 100 nL of the compounds at different concentrations were transferred to a 384-well reaction plate (Greiner, Cat. No. 784075) using Echo 655 (LABCYTE, Cat # 655), with the final DMSO concentration of 1% in the reaction mixture; 2 µL of sGC (ICE, Cat. No. S2304F-H07SH2) was added to a 384-well reaction plate, and the mixture was centrifuged at 1000 rpm for 1 min; and then 1 µL of DETA NONOate was added, and the mixture was incubated at 37°C for10 min. After the incubation was completed, 2 µL of GTP was added, and the mixture was centrifuged at 1000 rpm for 1 min and reacted at 37°C for 60 min. In the reaction system, the final concentrations of sGC, GTP, and DETA NONOate were 1.5 nM, 5 µM, and 100 µM, respectively. After the reaction was completed, 5 µL of the test mixture (PerkinElmer, Cat. No. 62GM2PEG) was added and incubated at room temperature for 60 min. The TR-FRET signal (Ratio: 665/620 nm) was read using a microplate reader (BMG, Cat. No. PHERAstar FSX). A nonlinear regression curve was fitted using GraphPad Prism software, and EC50 values were calculated. Compound A (Example 1 in WO 2010065275) was used as a positive reference compound.

Data set [2] is described as follows: Pharmacokinetic test in rats (inhalation administration). Particulars: SD rats, single inhalation dose 0.03 mg/kg; for Lung AUC0-t / Lung Cmax: lung tissue.
Method: Experimental objective: In this experiment, the test compound was administered as a single dose via inhalation to SD rats, and the concentrations of the test compound in rat plasma and lungs were determined to evaluate the pharmacokinetic characteristics and bioavailability of the test compound in the rats.
Experimental animals: Male SD rats, 180-200 g, purchased from Chengdu Dossy Experimental Animals Co., Ltd.
Experimental method: On the day of the experiment, SD rats were randomly assigned into 6 groups according to body weight (for each compound), with 2 rats in each group. The rats were fasted with water available for 12 to 16 hours one day before the administration, and were fed 4 hours after the administration.
Plasma sampling: before and after the administration, blood was taken from the orbits of the rats under isoflurane anaesthesia, and placed in an EDTAK2 centrifuge tube. Centrifugation was performed at 6000 rpm at 4°C for 10 min, and the plasma was collected.
Lung tissue sampling: Animals from each group were euthanised by CO2 inhalation at 0.25, 0.5, 1, 4, 7 and 24 hours after the administration. Then, the animal was dissected to collect lung tissue, which was rinsed with physiological saline, dried with filter paper, weighed in the balance, kept on wet ice and homogenised within 2 hours using a 6-fold volume (i.e., 6 mL per 1 g of tissue) of homogenisation buffer (50% methanol-water).
Before analysis and detection, all samples were stored at -60°C. The samples were analysed quantitatively by LC-MS/MS.
Setting [3] is: enzymatic agonism and/or activation of sGC, 1.5 nM sGC, 5 µM GTP, 100 µM DETA NONOate.

pEC50: −log10 of the molar value. Where two headings read alike, the source gives them in different places.
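For pEC50 in this document: enzyme reaction started with GTP and run for 60 min at 37°C, followed by a 60 min detection step at room temperature, with EC50 obtained by nonlinear curve fitting.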

One may read the pEC50 as the negative decadic logarithm of the EC50, by convention in mol/L. The low end stands for a high EC50, the high end for a low EC50. Take `CC(C)(Cc1csc(C2(C)C(=O)Nc3nc(-n4c(=O)n(CCC(F)(F)C(F)(F)F)c5ncccc54)nc(N)c32)n1)C(=O)O` (stereo not shown) [Trifluoroacetate of compound 10]: the pEC50 in data set [1] is over 7.70.

The compound `CC(C)(Cc1csc(C2(C)C(=O)Nc3nc(-n4nc(Cc5ccccc5F)c5cc(Cl)ccc54)nc(N)c32)n1)C(=O)O` (stereo not shown) [Trifluoroacetate of compound 32] gave a pEC50 in data set [1] (setting [3]) of over 7.70.

Compound `CC(C)(Cc1csc(C2(C)C(=O)Nc3nc(-n4c(=O)n(Cc5ccccc5F)c5cc(F)ccc54)nc(N)c32)n1)C(=O)O` (racemic) [Trifluoroacetate of compound 38] gave a pEC50 in data set [1] of over 7.70.

In the case of `CC(C)(Cc1coc(C2(C)C(=O)Nc3nc(-c4nc(CCC(F)(F)C(F)(F)F)n5cc(F)ccc45)nc(N)c32)n1)C(=O)O` (stereo not shown) [Compound 46], the pEC50 in data set [1] is over 7.70.

Regarding `CC(C)(Cc1csc([C@]2(C)C(=O)Nc3nc(-c4nc(CCC(F)(F)C(F)(F)F)n5cc(F)ccc45)nc(N)c32)n1)C(=O)O` [Compound 45-1], in data set [2], the “Lung AUC0-t/plasma AUC0-t” value was found to be 43.4, the “Lung AUC0-t” value stood at 4500 ng·h/mL and the “Lung Cmax” value is listed as 2846 ng/mL.

Take `CC(C)(Cc1cccc(C2(C)C(=O)Nc3nc(-c4nc(CCC(F)(F)C(F)(F)F)n5ncccc45)nc(N)c32)c1)C(=O)O` (stereo not shown) [Compound 18]: in data set [1], the negative logarithm of the EC50 (pEC50) was over 7.70.

`CC(C)(Cc1csc(C2(C)C(=O)Nc3nc(-n4nc(CC5CCCCC5)c5ncc(F)cc54)nc(N)c32)n1)C(=O)O` (stereo not shown) [Compound 44] showed a pEC50 in data set [1] of over 7.70.

`CC(C)(Cc1csc(C2(C)C(=O)Nc3nc(-n4c(=O)n(CCC(F)(F)C(F)(F)F)c5ncc(F)cc54)nc(N)c32)n1)C(=O)O` (racemic) [Compound 12] showed a pEC50 in data set [1] of over 7.70.

The compound `CC(C)(Cc1coc(C2(C)C(=O)Nc3nc(-n4nc(Cc5ccccc5F)c5c(F)cccc54)nc(N)c32)n1)C(=O)O` (stereo not shown) [Compound 40] showed a pEC50 in data set [1] of over 7.70.

`CC(C)(Cc1csc(C2(C)C(=O)Nc3nc(-c4nc(CCC(F)(F)C(F)(F)F)n5cc(F)ccc45)nc(N)c32)n1)C(=O)O` (racemic) [Compound 45] had a pEC50 in data set [1] of over 7.70.

In turn, `CC(C)(Cc1cccc(C2(C)C(=O)Nc3nc(-n4c(=O)n(CCC(F)(F)C(F)(F)F)c5ncccc54)nc(N)c32)c1)C(=O)O` (racemic) [Compound 9] had a pEC50 in data set [1] of over 7.70.

For the compound `CC(C)(Cc1csc(C2(C)C(=O)Nc3nc(-n4c(=O)n(CCC(F)(F)C(F)(F)F)c5cc(F)ccc54)nc(N)c32)n1)C(=O)O` (stereo not shown) [Compound 31], the pEC50 in data set [1] (setting [3]) was over 7.70.

In data set [1] (setting [3]), `CC(C)(Cc1coc(C2(C)C(=O)Nc3nc(-n4c(=O)n(CCC(F)(F)C(F)(F)F)c5cc(Cl)ccc54)nc(N)c32)n1)C(=O)O` (stereo not shown) [Compound 8] gave a pEC50 of over 7.70.

In data set [1], `CC(C)(Cc1csc(C2(C)C(=O)Nc3nc(-c4nn(Cc5cccc(F)c5F)c5cccnc45)nc(N)c32)n1)C(=O)O` (stereo not shown) [Compound 24] had a pEC50 of over 7.70.

Turning to `CC(C)(Cc1csc([C@]2(C)C(=O)Nc3nc(-n4c(=O)n(Cc5ccccc5F)c5cc(F)ccc54)nc(N)c32)n1)C(=O)O` [Compound 38-1], in data set [2], the “Lung AUC0-t/plasma AUC0-t” value stood at 83.6 and the “Lung Cmax” value is 1743 ng/mL.

Regarding `CC(C)(Cc1csc(C2(C)C(=O)Nc3nc(-n4nc(CCC(F)(F)C(F)(F)F)c5ncc(F)cc54)nc(N)c32)n1)C(=O)O` (single isomer, unassigned) [Compound 37-1], in data set [2], the “Lung AUC0-t” value was determined as 3281 ng·h/mL and the “Lung Cmax” value turned out to be 1729 ng/mL.

`CC(C)(Cc1coc(C2(C)C(=O)Nc3nc(-n4nc(Cc5cccc(F)c5F)c5c(F)cccc54)nc(N)c32)n1)C(=O)O` (stereo not shown) [Compound 42] had a pEC50 in data set [1] of over 7.70.

In turn, `CC(C)(Cc1csc(C2(C)C(=O)Nc3nc(-n4nc(Cc5ccccc5F)c5ncc(F)cc54)nc(N)c32)n1)C(=O)O` (racemic) [Compound 35] gave a pEC50 in data set [1] of over 7.70.

As to `CC(C)(Cc1cccc(C2(C)C(=O)Nc3nc(-n4nc(CCC(F)(F)C(F)(F)F)c5ncccc54)nc(N)c32)c1)C(=O)O` (stereo not shown) [Trifluoroacetate of compound 5], the pEC50 in data set [1] is over 7.70.

As for `CC(C)(Cc1csc(C2(C)C(=O)Nc3nc(-n4c(=O)n(CC5CCCCC5)c5ncc(F)cc54)nc(N)c32)n1)C(=O)O` (stereo not shown) [Compound 13], the pEC50 in data set [1] is over 7.70.

Take `CC(C)(Cc1csc(C2(C)C(=O)Nc3nc(-n4nc(Cc5ccccc5F)c5c(F)cccc54)nc(N)c32)n1)C(=O)O` (racemic) [Compound 41]: the pEC50 in data set [1] was over 7.70.

In the case of `CC(C)(Cc1coc(C2(C)C(=O)Nc3nc(-n4c(=O)n(CCC(F)(F)C(F)(F)F)c5cc(F)ccc54)nc(N)c32)n1)C(=O)O` (stereo not shown) [Compound 11], the pEC50 in data set [1] was over 7.70.

As to `CC(C)(Cc1csc(C2(C)C(=O)Nc3nc(-c4nc(CCC(F)(F)C(F)(F)F)n5ncccc45)nc(N)c32)n1)C(=O)O` (racemic) [Compound 3], the pEC50 in data set [1] is over 7.70.

Compound `CC(C)(Cc1csc(C2(C)C(=O)Nc3nc(-n4c(=O)n(Cc5cccc(F)c5F)c5ncc(F)cc54)nc(N)c32)n1)C(=O)O` (stereo not shown) [Trifluoroacetate of compound 28] gave a pEC50 in data set [1] of over 7.70.

Consider `CC(C)(Cc1csc(C2(C)C(=O)Nc3nc(-n4nc(CCC(F)(F)C(F)(F)F)c5ncc(F)cc54)nc(N)c32)n1)C(=O)O` (racemic) [Compound 37], for which the pEC50 in data set [1] is over 7.70.

As to `CC(C)(Cc1csc(C2(C)C(=O)Nc3nc(-n4c(=O)n(CCC(F)(F)C(F)(F)F)c5c(F)cccc54)nc(N)c32)n1)C(=O)O` (racemic) [Trifluoroacetate of compound 14], the pEC50 in data set [1] is over 7.70.

Consider `CC(C)(Cc1coc(C2(C)C(=O)Nc3nc(-n4nc(Cc5ccccc5F)c5cc(Cl)ccc54)nc(N)c32)n1)C(=O)O` (stereo not shown) [Trifluoroacetate of compound 34], for which the pEC50 in data set [1] is over 7.70.

Take `CC(C)(Cc1coc(C2(C)C(=O)Nc3nc(-n4c(=O)n(CCC(F)(F)C(F)(F)F)c5c(F)cccc54)nc(N)c32)n1)C(=O)O` (stereo not shown) [Compound 16]: in data set [1], the pEC50 was over 7.70.

For the compound `CC(C)(Cc1coc(C2(C)C(=O)Nc3nc(-c4nn(CCC(F)(F)C(F)(F)F)c5cc(Cl)cnc45)nc(N)c32)n1)C(=O)O` (stereo not shown) [Compound 21], in data set [1], the pEC50 is over 7.70.

The compound `CC(C)(Cc1coc(C2(C)C(=O)Nc3nc(-n4nc(CCC(F)(F)C(F)(F)F)c5cc(F)ccc54)nc(N)c32)n1)C(=O)O` (stereo not shown) [Trifluoroacetate of compound 33] showed a pEC50 in data set [1] (setting [3]) of over 7.70.

As to `CC(C)(Cc1csc(C2(C)C(=O)Nc3nc(-c4nn(CCC(F)(F)C(F)(F)F)c5cc(Cl)cnc45)nc(N)c32)n1)C(=O)O` (stereo not shown) [Compound 20], the pEC50 in data set [1] was over 7.70.

With `CC(C)(Cc1csc(C2(C)C(=O)Nc3nc(-n4c(=O)n(Cc5ccccc5F)c5c(F)cccc54)nc(N)c32)n1)C(=O)O` (stereo not shown) [Trifluoroacetate of compound 15], in data set [1] (setting [3]), the pEC50 was over 7.70.

In turn, `CC(C)(Cc1csc(C2(C)C(=O)Nc3nc(-n4nc(CCC(F)(F)C(F)(F)F)c5ncccc54)nc(N)c32)n1)C(=O)O` (stereo not shown) [Compound 29] showed a pEC50 in data set [1] of over 7.70.

In the case of `CC(C)(Cc1csc(C2(C)C(=O)Nc3nc(-n4nc(CCC(F)(F)C(F)(F)F)c5cc(F)ccc54)nc(N)c32)n1)C(=O)O` (racemic) [Compound 17], the pEC50 in data set [1] was over 7.70.

Compound `CC(C)(Cc1csc(C2(C)C(=O)Nc3nc(-n4nc(CCC(F)(F)C(F)(F)F)c5cc(Cl)ccc54)nc(N)c32)n1)C(=O)O` (racemic) [Trifluoroacetate of compound 4] had a pEC50 in data set [1] of over 7.70.

`CC(C)(Cc1cccc(C2(C)C(=O)Nc3nc(-n4c(=O)n(CCC(F)(F)C(F)(F)F)c5cc(Cl)ccc54)nc(N)c32)c1)C(=O)O` (single isomer, unassigned) [Compound 1-2] showed a pEC50 in data set [1] of over 7.70.

`CC(C)(Cc1csc(C2(C)C(=O)Nc3nc(-n4nc(Cc5cccc(F)c5F)c5ncc(F)cc54)nc(N)c32)n1)C(=O)O` (racemic) [Compound 36] showed a pEC50 in data set [1] of over 7.70.

In data set [1], `CC(C)(Cc1csc(C2(C)C(=O)Nc3nc(-c4nn(Cc5ccccc5F)c5cccnc45)nc(N)c32)n1)C(=O)O` (stereo not shown) [Trifluoroacetate of compound 23] showed a negative logarithm of the EC50 (pEC50) of over 7.70.

With `CC(C)(Cc1csc(C2(C)C(=O)Nc3nc(-c4nc(Cc5ccccc5F)n5ncccc45)nc(N)c32)n1)C(=O)O` (racemic) [Compound 19], the pEC50 in data set [1] is over 7.70.

Values taken from EP4725948A1, “PYRROLO[2,3-D]PYRIMIDIN-4-AMINE DERIVATIVE AND USE THEREOF IN MEDICINE” (Haisco Pharmaceutical Group Co., Ltd., priority 2023, dated 2024).
